What was measured:
Format in all cases: toxicity, cell-based
Fibroblast = assay: Incucyte cell viability with human fibroblast; settings: 10 µM, compound concentration 10 uM
U2OS = assay: Incucyte cell viability with U2OS; settings: human, 10 µM, compound concentration 10 uM
HEK-293T = assay: Incucyte cell viability with HEK293T; settings: human, 10 µM, compound concentration 10 uM
[1] = 0 h, replicate number 1, timepoint 0 hours
[2] = 6 h, replicate number 1, timepoint 6 hours
[3] = 12 h, replicate number 1, timepoint 12 hours
[4] = 18 h, replicate number 1, timepoint 18 hours
[5] = 24 h, replicate number 1, timepoint 24 hours
[6] = 24 h, replicate number 2, timepoint 24 hours
[7] = 6 h, replicate number 2, timepoint 6 hours
[8] = 0 h, replicate number 2, timepoint 0 hours
[9] = 12 h, replicate number 2, timepoint 12 hours
[10] = 18 h, replicate number 2, timepoint 18 hours
Note: filed as whole numbers so only -1 and 0 and 1 occur.

SMILES	Growth Rate (Fibroblast; [1])	Growth Rate (Fibroblast; [2])	Growth Rate (Fibroblast; [3])	Growth Rate (Fibroblast; [4])	Growth Rate (Fibroblast; [5])	Growth Rate (Fibroblast; [6])	Growth Rate (U2OS; [1])	Growth Rate (U2OS; [7])	Growth Rate (U2OS; [3])	Growth Rate (U2OS; [4])	Growth Rate (U2OS; [5])	Growth Rate (HEK-293T; [1])	Growth Rate (HEK-293T; [2])	Growth Rate (HEK-293T; [3])	Growth Rate (HEK-293T; [4])	Growth Rate (HEK-293T; [5])	Growth Rate (Fibroblast; [7])	Growth Rate (Fibroblast; [9])	Growth Rate (Fibroblast; [10])	Growth Rate (U2OS; [2])	other results
Cc1cn2cc(CC(=O)N3CCC4(CC3)CN(Cc3ccc(-n5nccn5)cc3Cl)C4)nc2s1	1	0	0	0	1	0	0	0	1	1	1	1	0	0	0	0	–	–	–	–	Growth Rate (HEK-293T; [8]): 0
OCCn1cc(-c2ccc3c(c2)CCC3=NO)c(-c2ccncc2)n1	0	–	1	1	1	–	1	–	1	1	1	0	–	1	0	0	1	0	0	1	Growth Rate (U2OS; [10]): 0; Growth Rate (HEK-293T; [10]): 1; Growth Rate (HEK-293T; [6]): 1
CCCCC#Cc1nc(NC)c2ncn([C@@H]3O[C@H](CO)[C@@H](O)[C@H]3O)c2n1	0	1	1	1	1	–	0	–	1	1	1	0	0	0	0	0	–	–	–	0	Growth Rate (U2OS; [9]): 0; Growth Rate (HEK-293T; [7]): 1; Growth Rate (HEK-293T; [9]): 1; Growth Rate (HEK-293T; [10]): 1; Growth Rate (HEK-293T; [6]): 1
Cc1cc2c(cc1C1(c3ccc(C(=O)O)cn3)CC1)C(C)(C)CCC2(C)C	1	0	0	1	0	1	0	–	1	1	1	0	1	1	1	0	1	–	–	–	Growth Rate (Fibroblast; [8]): 0; Growth Rate (HEK-293T; [9]): 0; Growth Rate (HEK-293T; [10]): 0
CC(C)C[C@H](NC(=O)N1CCCCCC1)C(=O)N[C@H](Cc1cn(C)c2ccccc12)C(=O)N[C@H](Cc1ccccn1)C(=O)O	0	–	–	1	1	0	0	1	–	1	1	0	0	0	1	1	0	0	–	–	Growth Rate (U2OS; [9]): 1; Growth Rate (HEK-293T; [7]): 1; Growth Rate (HEK-293T; [9]): 1
COc1cc(C#N)ccc1S(=O)(=O)Nc1ccc2c(c1)cc(C)c(=O)n2C	–	1	0	0	1	0	0	1	0	0	0	1	0	0	0	0	0	–	–	0	Growth Rate (Fibroblast; [8]): 0; Growth Rate (U2OS; [9]): 1; Growth Rate (U2OS; [10]): 1; Growth Rate (U2OS; [6]): 1; Growth Rate (HEK-293T; [10]): 1
CCCOc1ccn2c(C(C)=O)cc(-c3cccc(OC)c3)c2c1	0	–	–	–	1	–	0	–	1	1	1	0	–	–	–	–	0	1	0	0	Growth Rate (HEK-293T; [6]): 1
C/C(=C/C=C/C(C)=C/C(=O)O)c1cc(C(C)(C)C)cc(C(C)(C)C)c1OCC(F)F	0	0	0	0	0	–	0	–	1	1	1	0	0	0	0	0	–	–	1	–	–
CC(C)c1ccc(CC(=O)N2CCC[C@@H](c3cccc(OC(C)(C)C(=O)O)c3)C2)cc1	–	0	1	0	0	–	0	0	–	1	1	1	0	1	0	0	–	0	–	–	Growth Rate (U2OS; [9]): 1; Growth Rate (HEK-293T; [8]): 0; Growth Rate (HEK-293T; [7]): 1; Growth Rate (HEK-293T; [6]): 1
CCOP(=O)(OCC)C(=Cc1cc(C(C)(C)C)c(O)c(C(C)(C)C)c1)P(=O)(OCC)OCC	–	0	0	0	0	–	1	0	0	0	0	0	–	0	0	0	–	–	1	–	Growth Rate (U2OS; [8]): 0; Growth Rate (HEK-293T; [7]): 0
CCc1cc(Nc2nccc(-c3c(-c4ccc(OC)c(C(=O)Nc5c(F)cccc5F)c4)nc4ccccn34)n2)c(OC)cc1N1CCC(N2CCN(S(C)(=O)=O)CC2)CC1	1	1	1	1	1	0	–	–	1	1	1	1	0	0	0	0	0	0	0	1	Growth Rate (U2OS; [10]): 0; Growth Rate (HEK-293T; [8]): 0; Growth Rate (HEK-293T; [9]): 1; Growth Rate (HEK-293T; [6]): 1
Cc1cc2c(cc1-c1cc(/C=C/C(=O)O)ccc1O)C(C)(C)CCC2(C)C	0	–	1	1	1	–	0	0	1	1	1	0	1	1	1	1	–	–	–	–	Growth Rate (U2OS; [9]): 0; Growth Rate (U2OS; [10]): 0
C/C(=N\NC(=O)[C@@H]1C(=O)NC[C@H]1c1ccccc1)c1cccc(Br)c1	1	0	0	0	1	0	0	–	1	0	0	1	0	0	0	0	–	–	–	0	Growth Rate (U2OS; [9]): 0; Growth Rate (HEK-293T; [8]): 0
COc1cc(OC)c(NC(=O)c2ccc(Cc3cc4c(cc3C)C(C)(C)CCC4(C)C)o2)c(OC)c1	0	0	–	1	1	–	0	1	1	1	0	1	0	0	0	0	–	1	–	–	Growth Rate (HEK-293T; [8]): 0; Growth Rate (HEK-293T; [7]): 1
Cc1c(C2=CCN(C(=O)N(C)C(C)C)CC2)nnn1-c1cccnc1F	1	0	0	0	0	1	0	0	1	1	1	0	1	1	0	1	–	1	1	–	Growth Rate (Fibroblast; [8]): 0; Growth Rate (HEK-293T; [10]): 1

From ChEMBL document CHEMBL4689842, “EUbOPEN Chemogenomics Library wave 1” (2021)
